The results in this text go back to ChEMBL document CHEMBL1201862, “PubChem BioAssay data set” (2004).

Test systems include NCI-H23; T47D; UACC-62; NCI-H522; SK-MEL-5; K562; COLO 205; BT-549; KM12; A549; SK-MEL-28; SK-OV-3; RPMI-8226; LOX IMVI; HCT-15; 786-0; HOP-62; PC-3; SR; M14.
What all share (assay): NCI anticancer screen, dose series, 48 h

Values joined by “and” are separate entries in the source; they are usually repeats but may differ in a detail not shown here. Identical values can stand only once.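 Cells were grown in 96-well plates and exposed to each compound for 48 hours at five concentrations; endpoints were interpolated linearly between bracketing concentrations, or set to the highest concentration if not reached. The concentration for 50% growth inhibition is given as GI50.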 Active and inactive are the calls of the source. Rule as the data show it: active = GI50 up to about 1.1 µM and inactive = higher.

In the case of `CC(C)OP(=O)(c1ccccc1)c1ccc2c(c1)OCCOCCOCCOCCO2` (centres undefined), the GI50 in the assay with NCI-H23 was > 100 µM (inactive); with T47D it was > 100 µM (inactive); in the assay with UACC-62, > 100 µM (inactive); in the assay with NCI-H522 it was 84.7 µM (inactive); with SK-MEL-5, > 100 µM (inactive); in the assay on K562, > 100 µM (inactive). Besides, the GI50 with COLO 205, with BT-549, with KM12, in the assay with A549, in the assay on SK-MEL-28 and in the assay on SK-OV-3 was > 100 µM (inactive) each time. Besides, the GI50 is > 100 µM (inactive) with RPMI-8226; > 100 µM (inactive) in the assay on LOX IMVI; over 100 µM with HCT-15; > 100 µM (inactive) in the assay with 786-0; > 100 µM (inactive) in the assay with HOP-62; > 100 µM (inactive) in the assay on PC-3.

As for `COc1ccc(-n2c(-c3ccccc3)cc(-c3cccs3)c2-c2cccs2)cc1`, the GI50 in the assay on NCI-H23 was 6.73 µM (inactive); in the assay on SR, > 100 µM (inactive); in the assay with T47D it was 26.5 µM (inactive); with UACC-62, > 100 µM (inactive); in the assay with NCI-H522, > 100 µM (inactive); with SK-MEL-5 it was > 100 µM (inactive). For the same compound, the GI50 was > 100 µM (inactive) in the assay on COLO 205; > 100 µM (inactive) in the assay with KM12; 39.4 µM (inactive) with A549; > 100 µM (inactive) in the assay with SK-MEL-28; > 100 µM (inactive) in the assay on SK-OV-3; > 100 µM (inactive) in the assay on RPMI-8226. For the same compound, the GI50 was > 100 µM (inactive) in the assay with LOX IMVI; over 100 µM in the assay on HCT-15; > 100 µM (inactive) with 786-0; > 100 µM (inactive) in the assay on HOP-62; > 100 µM (inactive) in the assay on M14.

Take `O=C1C(=O)N(C23CC4CC(CC(C4)C2)C3)C(=S)N1c1ccccc1`: the GI50 in the assay with NCI-H23 was 49.1 µM (inactive); with SR it was > 100 µM (inactive); in the assay with T47D, > 100 µM (inactive); in the assay on UACC-62 it was > 100 µM (inactive); in the assay on NCI-H522, 17.1 µM (inactive); in the assay on SK-MEL-5 it was 61.2 µM (inactive). The GI50 with K562 was > 100 µM (inactive); in the assay on COLO 205, > 100 µM (inactive); in the assay on KM12, > 100 µM (inactive); with A549, 65.5 µM (inactive); with SK-MEL-28, > 100 µM (inactive); in the assay on SK-OV-3 it was > 100 µM (inactive). Moreover, the GI50 in the assay on RPMI-8226 was > 100 µM (inactive); in the assay with LOX IMVI, > 100 µM (inactive); with HCT-15, over 100 µM; with 786-0 it was > 100 µM (inactive); with HOP-62 it was > 100 µM (inactive); with PC-3 it was > 100 µM (inactive).

With `C=C1c2nc3ccccc3n2C=C(c2ccc(OC)cc2)N1c1ccc(OC)cc1`, the GI50 was 21.1 µM (inactive) in the assay with NCI-H23; 12.8 µM (inactive) in the assay with SR; 16.1 µM (inactive) in the assay with UACC-62; 10.7 µM (inactive) in the assay with NCI-H522; 7.45 µM (inactive) in the assay with SK-MEL-5; > 100 µM (inactive) in the assay on K562. The GI50 with COLO 205 is 83.4 µM (inactive); in the assay on BT-549, 22.1 µM (inactive); in the assay with KM12, 14.6 µM (inactive); in the assay on A549, 21.3 µM (inactive); with SK-OV-3, 16.1 µM (inactive); with RPMI-8226, 29.4 µM (inactive). In addition, the GI50 in the assay on LOX IMVI is 46.6 µM (inactive); in the assay on HCT-15 it was 25.5 µM; with 786-0, 5.4 µM (inactive); with PC-3, 19 µM (inactive); with M14 it was 39.8 µM (inactive).

As for `[N-]=[N+]=NC1(c2ccccc2)C(=O)c2cccc3c4ccccc4n(c23)C1=O` (centres undefined), the GI50 in the assay on NCI-H23 was 52.2 µM (inactive); with T47D, > 100 µM (inactive); with UACC-62 it was 50 µM (inactive); in the assay on NCI-H522 it was 45.6 µM (inactive); in the assay with SK-MEL-5, > 100 µM (inactive); in the assay with COLO 205 it was 6.5 µM (inactive). Further, the GI50 is > 100 µM (inactive) in the assay on BT-549; 53.1 µM (inactive) with KM12; 76.2 µM (inactive) in the assay on A549; > 100 µM (inactive) with SK-MEL-28; > 100 µM (inactive) in the assay on SK-OV-3; 45.3 µM (inactive) in the assay on RPMI-8226. Besides, the GI50 in the assay on LOX IMVI is > 100 µM (inactive); with HCT-15 it was over 100 µM; with 786-0, > 100 µM (inactive); with HOP-62, > 100 µM (inactive); in the assay with PC-3 it was > 100 µM (inactive); with M14, > 100 µM (inactive).

Take `CCn1c2ccccc2c2cc(/N=N\c3ccc(C#N)cc3)ccc21`: the GI50 was 23.5 µM (inactive) with NCI-H23; 50.6 µM (inactive) in the assay on T47D; 61.4 µM (inactive) in the assay on UACC-62; 38.9 µM (inactive) in the assay on NCI-H522; 50.7 µM (inactive) with SK-MEL-5; 74.5 µM (inactive) in the assay on COLO 205. The GI50 with BT-549 was 20.7 µM (inactive); with KM12, 83.6 µM (inactive); in the assay on A549, 26.9 µM (inactive); in the assay with SK-MEL-28, > 100 µM (inactive); with SK-OV-3 it was 40.8 µM (inactive); with LOX IMVI, 23.7 µM (inactive). For the same compound, the GI50 in the assay on HCT-15 was over 100 µM; in the assay with 786-0, 29 µM (inactive); with HOP-62 it was 28 µM (inactive); in the assay on PC-3, > 100 µM (inactive); with M14, 25.9 µM (inactive).

For the compound `OC(C/C=N/N=C/CC(O)(C(F)(F)Cl)C(F)(F)Cl)(C(F)(F)Cl)C(F)(F)Cl`, the GI50 in the assay with NCI-H23, with SR, with T47D, in the assay with UACC-62, in the assay on NCI-H522 and in the assay with SK-MEL-5 was > 10 µM (inactive) each time. Further, the GI50 with K562, with COLO 205, in the assay on KM12, with A549, in the assay on SK-MEL-28 and in the assay with SK-OV-3 was > 10 µM (inactive) throughout. The GI50 in the assay on RPMI-8226 was > 10 µM (inactive); in the assay with LOX IMVI it was > 10 µM (inactive); in the assay on HCT-15, over 10 µM; in the assay with 786-0, > 10 µM (inactive); with HOP-62 it was > 10 µM (inactive); with PC-3 it was > 10 µM (inactive). Also, the GI50 with M14 was > 10 µM (inactive).

For the compound `O=C1CCC2(c3ccc(Cl)cc3)Nc3ncncc3N12` (centres undefined), the GI50 in the assay with NCI-H23, with UACC-62, in the assay with NCI-H522, in the assay on K562, in the assay with BT-549 and in the assay with KM12 was > 10 µM (inactive) in each case. The GI50 is > 10 µM (inactive) with A549; > 10 µM (inactive) in the assay with SK-OV-3; > 10 µM (inactive) with LOX IMVI; over 10 µM in the assay with HCT-15; > 10 µM (inactive) in the assay on 786-0; > 10 µM (inactive) in the assay on PC-3. Also, the GI50 in the assay on M14 is > 10 µM (inactive).

For `COc1cc(/C=C\C(=O)O)ccc1OCc1ccccc1`, the GI50 with NCI-H23, in the assay with SR, with T47D, with UACC-62, with NCI-H522 and in the assay on SK-MEL-5 was > 100 µM (inactive) in each case. Further, the GI50 is > 100 µM (inactive) with K562; > 100 µM (inactive) with COLO 205; 0.217 µM (active) in the assay with KM12; > 100 µM (inactive) in the assay with A549; > 100 µM (inactive) in the assay on SK-MEL-28; > 100 µM (inactive) with SK-OV-3. For the same compound, the GI50 in the assay on RPMI-8226 was > 100 µM (inactive); in the assay on LOX IMVI it was > 100 µM (inactive); in the assay on HCT-15, over 100 µM; in the assay with 786-0, > 100 µM (inactive); in the assay on HOP-62, > 100 µM (inactive); with PC-3, > 100 µM (inactive). In addition, the GI50 in the assay with M14 is > 100 µM (inactive).

As to `CSCC[C@H]1C(=O)N=C(N)N1C(=O)OCc1ccccc1`, the GI50 is 17.1 µM (inactive) with NCI-H23; 17.8 µM (inactive) in the assay on SR; 19.1 µM (inactive) with UACC-62; 19.7 µM (inactive) in the assay with NCI-H522; 46.8 µM (inactive) with SK-MEL-5; 21.8 µM (inactive) in the assay with K562. In addition, the GI50 is 18.7 µM (inactive) in the assay on COLO 205; 19.8 µM (inactive) with BT-549; 42.9 µM (inactive) in the assay with KM12; 24.2 µM (inactive) in the assay on SK-MEL-28; 60 µM (inactive) with RPMI-8226; 24.5 µM (inactive) in the assay with LOX IMVI. In addition, the GI50 was 28.6 µM in the assay on HCT-15, 26.2 µM (inactive) in the assay on 786-0, > 100 µM (inactive) in the assay with HOP-62 and 50.4 µM (inactive) in the assay on PC-3.

For `S=C1/C(=N/c2ccccc2)N(C2CCCCC2)/C(=N\C2CCCCC2)N1c1ccccc1`, the GI50 in the assay on NCI-H23 was > 100 µM (inactive); with SR it was > 100 µM (inactive); in the assay on T47D, 82.6 µM (inactive); with UACC-62 it was 76.2 µM (inactive); in the assay with NCI-H522 it was 6.73 µM (inactive); with SK-MEL-5 it was > 100 µM (inactive). For the same compound, the GI50 with K562 is > 100 µM (inactive); with COLO 205, 47.6 µM (inactive); with KM12, 42.7 µM (inactive); in the assay with A549, 60 µM (inactive); with SK-MEL-28, > 100 µM (inactive); in the assay with SK-OV-3, > 100 µM (inactive). For the same compound, the GI50 in the assay on RPMI-8226 was > 100 µM (inactive); with LOX IMVI, > 100 µM (inactive); in the assay on HCT-15, over 100 µM; in the assay with 786-0, 75.7 µM (inactive); in the assay on HOP-62, 51.8 µM (inactive); in the assay with PC-3 it was 63.8 µM (inactive).

As for `CC(=O)OC1CC2C(=O)CC1(C)C2(C)C` (centres undefined), the GI50 in the assay with NCI-H23, with SR, with T47D, in the assay on UACC-62, in the assay on NCI-H522 and in the assay on SK-MEL-5 was > 100 µM (inactive) each time. The GI50 is > 100 µM (inactive) and > 80.4 µM (inactive) in the assay on K562; > 100 µM (inactive) in the assay on COLO 205; > 100 µM (inactive) with KM12; > 100 µM (inactive) in the assay with A549; > 100 µM (inactive) in the assay with SK-MEL-28; > 100 µM (inactive) in the assay on SK-OV-3. Moreover, the GI50 in the assay with RPMI-8226 was > 100 µM (inactive); in the assay with LOX IMVI it was > 100 µM (inactive); in the assay with HCT-15, over 100 µM; with 786-0 it was > 100 µM (inactive); in the assay on HOP-62 it was > 100 µM (inactive); in the assay with PC-3, > 100 µM (inactive). The GI50 with M14 is > 100 µM (inactive).
